Consider five molecules from US5266698A, “Certain aryl and cycloalkyl fused imidazopyrazinediones; a new class of GABA brain receptor ligands” (Neurogen Corporation, priority 1992, dated 1993).

pIC50: −log10 of the molar value.

The test system of test [1] is GABA receptor. The settings on record: stereoisomers of bicuculline; Tallman et al., 1978, Nature, 274: 383-85; cited from earlier work.
Test [2] has as its target GABAa receptor (benzodiazepine receptor). Nature of the test: GABAa receptor binding assay ([3H]-Flumazenil (RO15-1788) displacement, rat cortical tissue). The settings on record: rat cortical tissue homogenate; 0.5 nM 3H-RO15-1788; 30 min at 4° C., pH 7.4; nonspecific: 1.0 mM diazepam. Here is the method:
The pharmaceutical utility of compounds of this invention are indicated by the following assay for GABAa receptor activity.
Assays are carried out as described in Thomas and Tallman (J. Bio. Chem. 156: 9838-9842, J. Neurosci. 3:433-440, 1983). Rat cortical tissue is dissected and homogenized in 25 volumes (w/v) of 0.05M Tris HCl buffer (pH 7.4 at 4° C.). The tissue homogenate is centrifuged in the cold (4°) at 20,000×g for 20'. The supernatant is decanted and the pellet is rehomogenized in the same volume of buffer and again centrifuged at 20,000×g. The supernatant is decanted and the pellet is frozen at -20° C. overnight. The pellet is then thawed and rehomogenized in 25 volume (original wt/vol) of buffer and the procedure i carried out twice. The pellet is finally resuspended in 50 volumes (w/vol of 0.05M Tris HCl buffer (pH 7.4 at […]).
Incubations contain […] of tissue homogenate, […] of radioligand 0.5 nM (^3 H-RO15-1788 [^3 H-Flumazenil] specific activity 80 Ci/mmol), drug or blocker and buffer to a total volume of […]. Incubations are carried for 30 min at 4° C. then are rapidly filtered through GFB filters to separate free and bound ligand. Filters are washed twice and fresh 0.05M Tris HCl buffer (pH 7.4 at 4° C.) and counted in a liquid scintillation counter. 1.0 mM diazepam is added to some tubes to determine nonspecific binding. Data are collected in triplicate determinations, averaged and % inhibition of total specific binding is calculated. Total Specific Binding=Total-Nonspecific. In some cases, the amounts of unlabeled drugs is varied and total displacement curves of binding are carried out. Data are converted to a form for the calculation of IC50 and Hill Coefficient (nH).

By pIC50 is commonly meant the IC50 on a negative log10 scale, so that one unit is a factor of ten. Low readings indicate a high IC50, high ones a low IC50.

As for `CN1CCc2cc3c(cc2C1C1OC(=O)c2c1ccc1c2OCO1)OCO3` (single isomer, unassigned; (+)) [(+) bicuculline], in test [1], the “Block of enhancement of benzodiazepine binding by GABA agonists” value is on record as “blocked”.

Regarding `CN1CCc2cc3c(cc2C1C1OC(=O)c2c1ccc1c2OCO1)OCO3` (single isomer, unassigned; (-)) [(-) bicuculline], the “Block of enhancement of benzodiazepine binding by GABA agonists” value in test [1] is “much less active”.

In the case of `O=c1c2c[nH]c3cccnc3n-2c(=O)n1-c1ccccc1` [Compound 1, 2-Phenyl-imidazo[1,5,a]pyrido[3,2-e]pyrazine-1,3(2H,5H)-dione], the pIC50 in test [2] is 8.00.

`COc1ccc(-n2c(=O)c3c[nH]c4cccnc4n-3c2=O)cc1` [Compound 5, 2-(4-Methoxyphenyl)-imidazo[1,5,a]pyrido[3,2-e]pyrazine-2,3(2H,5H)-dione] had a pIC50 in test [2] of 8.05.

In test [2], `CCOc1ccc(-n2c(=O)c3c[nH]c4cccnc4n-3c2=O)cc1` [Compound 8, 2-(4-Ethoxyphenyl)-imidazo[1,5,a]pyrido[3,2-e]pyrazine-2,3(2H,5H)-dione] gave a pIC50 of 7.70. Against the preceding molecule, the pIC50 is 0.35 log units lower.
